ChEMBL document CHEMBL1201862, “PubChem BioAssay data set” (2004)
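In this assay, cells in 96-well plates receive the compound at five concentrations for 48 hours. Endpoints are linearly interpolated between the surrounding concentrations. GI50 is the concentration that inhibits growth by half.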 Active and inactive are the calls of the source. No stated cut-off is given here; in the data, active = GI50 up to about 1.1 µM and inactive = higher.

Assays:
Test in all cases: growth of human tumour cells (NCI), 48 h
[1] = system: SK-MEL-5
[2] = system: SNB-19
[3] = system: NCI-H460
[4] = system: SK-MEL-2
[5] = system: BT-549
[6] = system: SF-539
[7] = system: NCI-H522
[8] = system: KM12
[9] = system: OVCAR-8
[10] = system: CCRF-CEM
[11] = system: CAKI-1
[12] = system: HOP-92
[13] = system: RPMI-8226
[14] = system: HT-29
[15] = system: SK-OV-3
[16] = system: OVCAR-5
[17] = system: SR
[18] = system: U-251
[19] = system: UACC-257
[20] = system: A549
[21] = system: COLO 205
[22] = system: RXF 393
[23] = system: OVCAR-4
[24] = system: HL-60
[25] = system: MDA-N
[26] = system: EKVX
[27] = system: K562
[28] = system: A498
[29] = system: T47D
[30] = system: HOP-62
[31] = system: MDA-MB-231
[32] = system: 786-0
[33] = system: SF-295
[34] = system: ACHN
[35] = system: MCF7
[36] = system: Hs-578T
[37] = system: OVCAR-3
[38] = system: LOX IMVI
[39] = system: Malme-3M
[40] = system: HCT-116
[41] = system: MDA-MB-435
[42] = system: DU-145
[43] = system: SW-620
[44] = system: NCI-H226
[45] = system: TK-10
[46] = system: M14
[47] = system: SN12C
[48] = system: IGROV-1
[49] = system: PC-3
[50] = system: HCT-15
[51] = system: SF-268
[52] = system: MOLT-4
[53] = system: NCI-H23
[54] = system: HCC 2998
[55] = system: UO-31
[56] = system: SK-MEL-28
[57] = system: NCI/ADR-RES
[58] = system: SNB-75
[59] = system: UACC-62

Measured: GI50

CC(C)=CCN1CC(C)C(=O)Nc2cc(Cl)ccc21 (configuration not stated)
29.9 µM: [50]
inactive: [1] 13.6 µM | [2] 28.5 µM | [3] 20.5 µM | [4] 16.2 µM | [5] 18.7 µM | [6] 23.5 µM | [7] 17.3 µM | [8] 25.2 µM | [9] 29.7 µM | [10] 29.4 µM | [11] 18.5 µM | [12] 10.8 µM | [13] 28.8 µM | [14] 19.2 µM | [15] 24.8 µM | [16] 34 µM | [17] > 100 µM | [18] 27.4 µM | [19] 13.3 µM | [20] 30.2 µM | [21] 19.8 µM | [22] 28.4 µM | [23] 25.6 µM | [24] 47.8 µM | [25] 26 µM | [26] 26.2 µM | [27] 96.8 µM | [28] 33.3 µM | [29] 24.9 µM | [30] 26.6 µM | [31] 22 µM | [32] 19.2 µM | [33] 27.1 µM | [34] 25 µM | [35] 18.7 µM | [36] 36.5 µM | [37] 15.1 µM | [38] 16.2 µM | [39] 25.1 µM | [40] 16.2 µM | [41] 23.4 µM | [42] 30 µM | [43] 26.7 µM | [44] 15.7 µM | [45] 19.3 µM | [46] 23.2 µM | [47] 15.9 µM | [48] 24.3 µM | [49] 18.6 µM | [51] 35.2 µM | [52] > 100 µM | [53] 21.6 µM | [54] 28.5 µM | [55] 28.6 µM | [56] 43.3 µM

CCN1CC2(C)CCC(OC)C34C5CC6CCC(O)(C5C(=O)O6)C(C(O)C23)C14 (configuration not stated)
> 100 µM: [50]
inactive: [1] > 100 µM | [2] > 100 µM | [3] > 100 µM | [4] > 100 µM | [5] > 100 µM | [6] > 100 µM | [57] > 100 µM | [7] > 100 µM | [8] > 100 µM | [9] > 100 µM | [10] > 100 µM | [11] > 100 µM | [12] > 100 µM | [13] > 100 µM | [14] > 100 µM | [15] > 100 µM | [16] > 100 µM | [18] > 100 µM | [19] > 100 µM | [20] > 100 µM | [21] > 100 µM | [22] > 100 µM | [23] > 100 µM | [24] > 100 µM | [25] > 100 µM | [26] > 100 µM | [27] > 100 µM | [58] > 100 µM | [59] > 100 µM | [28] > 100 µM | [29] > 100 µM | [30] > 100 µM | [31] > 100 µM | [32] > 100 µM | [33] > 100 µM | [34] > 100 µM | [35] > 100 µM | [36] > 100 µM | [37] > 100 µM | [38] > 100 µM | [39] > 100 µM | [40] > 100 µM | [41] > 100 µM | [42] > 100 µM | [43] > 100 µM | [45] > 100 µM | [46] > 100 µM | [48] > 100 µM | [49] > 100 µM | [51] > 100 µM | [52] > 100 µM | [53] > 100 µM | [54] > 10 µM | [55] > 100 µM | [56] > 100 µM

Cc1nc2cc(C(F)(F)F)ccc2[nH]c1=O
inactive: [1] > 100 µM | [2] > 100 µM | [3] > 100 µM | [4] > 100 µM | [5] > 100 µM | [6] > 100 µM | [57] > 100 µM | [8] > 100 µM | [9] > 100 µM | [10] > 100 µM | [11] > 100 µM | [12] > 100 µM | [13] > 100 µM | [14] > 100 µM | [15] > 100 µM | [16] > 100 µM | [18] > 100 µM | [19] > 100 µM | [20] > 100 µM | [21] > 100 µM | [22] > 100 µM | [23] > 100 µM | [24] > 100 µM | [25] > 100 µM | [26] 7.08 µM | [27] > 100 µM | [58] > 100 µM | [59] 87.7 µM | [28] > 100 µM | [29] 45.5 µM | [30] > 100 µM | [31] > 100 µM | [32] > 100 µM | [33] > 100 µM | [34] > 100 µM | [35] > 100 µM | [36] 21.9 µM | [37] > 100 µM | [38] > 100 µM | [39] > 100 µM | [40] > 100 µM | [41] > 100 µM | [42] > 100 µM | [43] > 100 µM | [44] > 100 µM | [45] > 100 µM | [46] > 100 µM | [47] > 100 µM | [49] > 100 µM | [51] > 100 µM | [52] > 100 µM | [53] > 100 µM | [54] > 100 µM | [55] > 100 µM | [56] > 100 µM
> 100 µM: [50]

COc1ccc(/C(C)=N/OC(=O)c2c(-c3ccccc3Cl)noc2C)cc1CN1CCOCC1
26.5 µM: [50]
inactive: [1] 17.3 µM | [2] 16.2 µM | [3] 29 µM | [4] 16.4 µM | [5] 22.2 µM | [6] 24.8 µM | [57] 34.1 µM | [7] 17.8 µM | [8] 22.4 µM | [9] 29.3 µM | [10] 66.7 µM | [11] 20.7 µM | [12] 24.2 µM | [13] 26.1 µM | [14] 18.3 µM | [15] 29.4 µM | [16] 12.8 µM | [17] 25 µM | [18] 25.4 µM | [19] 17.9 µM | [20] 19.1 µM | [21] 16.2 µM | [22] 26.3 µM | [23] 29.4 µM | [24] 17.1 µM | [25] 18.8 µM | [27] 28.2 µM | [58] 28.4 µM | [59] 15 µM | [29] 16.4 µM | [30] 19.1 µM | [31] 20 µM | [32] 24.5 µM | [33] 11.5 µM | [34] 15.7 µM | [35] 20.8 µM | [36] 28.9 µM | [37] 21.7 µM | [38] 14.9 µM | [39] 21.2 µM | [40] 18.2 µM | [41] 20.8 µM | [42] 38.3 µM | [43] 43.1 µM | [44] 88.1 µM | [45] 43.1 µM | [46] 14 µM | [47] 18.7 µM | [48] 21.1 µM | [49] 24.2 µM | [51] 30.8 µM | [52] 24 µM | [53] 32.6 µM | [54] 30.5 µM | [55] 3.75 µM | [56] 19.7 µM

CN(C)c1ccc2nc(CC(O)(C(F)(F)F)C(F)(F)F)ccc2c1
inactive: [1] > 10 µM | [2] > 10 µM | [3] > 10 µM | [4] > 10 µM | [5] > 10 µM | [6] > 10 µM | [57] > 10 µM | [7] > 10 µM | [8] > 10 µM | [9] > 10 µM | [10] > 10 µM | [11] > 10 µM | [12] > 10 µM | [13] > 10 µM | [14] > 10 µM | [15] > 10 µM | [16] > 10 µM | [18] > 10 µM | [19] > 10 µM | [20] > 10 µM | [21] > 10 µM | [22] > 10 µM | [23] > 10 µM | [25] > 10 µM | [26] > 10 µM | [27] > 10 µM | [58] > 10 µM | [59] > 10 µM | [28] > 10 µM | [29] > 10 µM | [30] > 10 µM | [31] > 10 µM | [32] > 10 µM | [33] > 10 µM | [34] > 10 µM | [35] > 10 µM | [36] > 10 µM | [37] > 10 µM | [38] > 10 µM | [39] > 10 µM | [40] > 10 µM | [41] > 10 µM | [42] > 10 µM | [43] > 10 µM | [44] > 10 µM | [45] > 10 µM | [46] > 10 µM | [47] > 10 µM | [48] > 10 µM | [49] > 10 µM | [51] > 10 µM | [52] > 10 µM | [53] > 10 µM | [54] > 10 µM | [55] > 10 µM | [56] > 10 µM
> 10 µM: [50]
